The target in assay [1] is AChE (Electrophorus electricus—eeAChE) (Electrophorus electricus, UniProt O42275). Put plainly: biochemical. In kind it is biochemical. The method, then:
The synthesized compounds were evaluated for their inhibitory activity against AChE (Electrophorus electricus—eeAChE), using an adaptation of Ellman’s method. […] Initially, we performed a screening assay for the synthesized compounds to determine their enzyme inhibition at 20 μΜ as a threshold maximum concentration. […]
The inhibitory activity of the synthesized compounds towards AChE was evaluated spectrophotometrically by a 96-well microplate modified Ellman’s method. The enzyme (AChE) from Electrophorus electricus (eeAChE) stock solution was prepared as 7.4 U/mL in phosphate buffer, at pH 7. The stock solutions for the target compounds (0.1 M) were prepared in DMSO. The assay solution consisted of 0.0005 M 5,5′-dithiobis(2-nitrobenzoic acid) (DTNB), 0.013 U/mL eeAChE, and 0.0025 M acetylthiocholine iodide ATC (substrate for AChE) in 0.1 M phosphate buffer, at pH 7. The reaction mixture was prepared with 100 μL of the enzyme (eeAChE) and 50 μL of the test compound (or DMSO/water, not exceeding 0.2% of DMSO in the wells; i.e., blank samples). After 5 min of the pre-incubation period at 37 °C, 50 μL of acetylthiocholine iodide ATC and 50 μL of 5,5′-dithiobis(2-nitrobenzoic acid) (DTNB) were added to each well, thus initiating the enzymatic reaction. […] All compounds were tested at a screening concentration of 20 μM. The enzyme inhibition was calculated using the […] formula, where S and B are the enzyme activities with and without the test compound, respectively. […] All the reactions were performed in triplicate.

Assay [2] addresses T1, HFIP-treated Aβ1-42 peptides (Homo sapiens, UniProt P05067).
T1 construct: (HFIP)-treated Aβ1-42 peptides
Put plainly: Aβ aggregation inhibition, thioflavin T (ThT)-based fluorimetric assay. Format: biochemical. Particulars: 20 μM compound; for inhibition at 20 µM: read-out: Aβ1-42 Aggregation (% Inhib. at 20 μM). The source says: The formation of amyloid aggregates is crucial for the path mechanism of AD. Therefore, we also decided to check the inhibitory activity of the synthesized compounds against the Aβ aggregation. To do so, we conducted a thioflavin T (ThT)-based fluorimetric assay to evaluate their ability to inhibit β-amyloid aggregation in vitro, using 1,1,1,3,3,3,-hexafluoro-2-propanol (HFIP)-treated Aβ1-42 peptides. This assay is based on the interaction between benzothiazole dye (ThT) and cross β-sheet quaternary structure of the amyloid protein. The intensity of fluorescence is weak when the dye is free and increases when the dye binds to β-sheet structures. Cumulative evidence has been shown that aromatic/hydrophobic areas and hydrogen bonding components (such as hydroxy or methoxy groups) along flat extended structures in small-molecule inhibitors as in chromeno[3,4-b]xanthones 4a-i, are important structural features for Aβ aggregation inhibitors. […] The ThT fluorescence data was recorded over 24 h and the obtained results were then plotted against time, as illustrated in Figure 5. Phenol red was used as the reference inhibitor for in vitro Aβ aggregation.
The inhibition of Aβ1-42 aggregation was determined through a ThT-based fluorimetric assay. Initially, the Aβ-peptides (1 mg) were pre-treated with 1,1,1,3,3,3,-hexafluoro-2-propanol (HFIP), kept at room temperature overnight, aliquoted, and dried under vacuum. The Aβ-peptides stock solutions (111 μM) were then prepared in ammonium hydroxide 0.1% (NH4OH) prior to the fluorescence assay. The stock solutions of all tested compounds (400 μM) were prepared in DMSO, while the stock solution of ThT (400 μM) was prepared in distilled water (1 mL). The Aβ aggregation was monitored using a standard 96-well plates, in the Synergy multi-mode reader (BioTek) and setting the excitation and emission wavelengths at 440 and 485 nm, respectively. Samples were prepared by diluting the stock solutions in PBS pH 7.4 to a final Aβ peptides concentration of 10 μM, 20 μM of ThT and 20 μM of the test compound (maximum final DMSO content: 5% v/v), with a final volume of 100 μL. The assays were performed at room temperature. The fluorescence data was recorded over 24 h with 5 s shaking (360 cpm) prior to each reading and then plotted against the time, using a nonlinear regression. Phenol red was used as the reference compound. Each condition was performed in triplicate, and values were averaged. The estimation of the inhibitory potency (%) was carried out by comparing fluorescence values at the plateau.

Where [3] appears, read: Table 1, mean ± SEM, n = 3, each in triplicate, pH 7, 37 °C, read-out: eeAChE [IC50 (μM)].
[4] abbreviates: Table 3 (dual-target summary), mean ± SEM, n = 3, read-out: eeAChE (IC50 [μM]).
Setting [5] is: Table 2, 10 μM Aβ, fluorescence at plateau over 24 h, <10 = no inhibition observed.

Where two headings read alike, the source gives them in different places. Some results are limits rather than exact numbers.

T1 sequence (P05067 672-713): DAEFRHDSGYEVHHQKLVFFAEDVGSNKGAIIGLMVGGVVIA
Sequence of AChE (Electrophorus electricus—eeAChE) (O42275 24-633): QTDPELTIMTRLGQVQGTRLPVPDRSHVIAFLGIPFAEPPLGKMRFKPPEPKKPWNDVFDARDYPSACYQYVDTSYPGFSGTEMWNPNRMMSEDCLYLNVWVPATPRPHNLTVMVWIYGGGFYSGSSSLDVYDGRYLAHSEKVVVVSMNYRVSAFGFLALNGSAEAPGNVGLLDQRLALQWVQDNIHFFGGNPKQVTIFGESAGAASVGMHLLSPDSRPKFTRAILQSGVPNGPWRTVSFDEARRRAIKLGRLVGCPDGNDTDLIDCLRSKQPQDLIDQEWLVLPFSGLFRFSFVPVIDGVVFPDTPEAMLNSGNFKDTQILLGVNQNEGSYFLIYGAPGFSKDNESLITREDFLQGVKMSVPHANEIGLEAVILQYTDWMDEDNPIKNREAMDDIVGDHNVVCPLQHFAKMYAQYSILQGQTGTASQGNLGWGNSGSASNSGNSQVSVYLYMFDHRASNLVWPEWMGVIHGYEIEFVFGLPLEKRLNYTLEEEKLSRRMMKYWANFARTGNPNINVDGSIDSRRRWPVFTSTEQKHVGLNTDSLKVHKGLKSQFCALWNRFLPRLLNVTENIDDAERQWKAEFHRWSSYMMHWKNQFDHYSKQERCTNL

For the compound “2,9-Dimethoxy-6H,8H-chromeno[3,4-b]xanthen-8-one [Compound 4g]”, the IC50 in assay [1] (setting [3]) was over 20 µM.

As to “2,11,12-trimethoxy-6H,8H-chromeno[3,4-b]xanthen-8-one [Compound 4h]”, the IC50 in assay [1] (setting [3]) is over 20 µM.

As to “2,11-Dimethoxy-6H,8H-chromeno[3,4-b]xanthen-8-one [Compound 4f]”, the IC50 in assay [1] (setting [3]) and in assay [1] (setting [4]) was 4.8 ± 0.1 µM each time. Besides, the “Aβ1-42 Aggregation (% Inhib. at 20 μM)” value in assay [2] (setting [5]) and in assay [2] (Table 3 (dual-target summary)) was 52% throughout.

As to “2-Methoxy-6H,8H-chromeno[3,4-b]xanthen-8-one [Compound 4e]”, the IC50 in assay [1] (setting [3]) and in assay [1] (setting [4]) was 6.9 ± 0.3 µM each time. The “Aβ1-42 Aggregation (% Inhib. at 20 μM)” value in assay [2] (setting [5]) and in assay [2] (Table 3 (dual-target summary)) was 61% in each case.

With `C#CCOc1ccccc1/C=C/c1cc(=O)c2ccccc2o1` [Compound 3a, (E)-2-[2-(prop-2-yn-1-yloxy)styryl]-4H-chromen-4-one], half-maximal inhibition in assay [1] (IC50) was put at 9.5 ± 0.3 µM. Also, the inhibition at 20 µM in assay [2] (setting [5]) is under 10%.

As to `C#CCOc1ccccc1/C=C/c1cc(=O)c2ccc(OC)cc2o1` [Compound 3b, (E)-7-methoxy-2-[2-(prop-2-yn-1-yloxy)styryl]-4H-chromen-4-one], the 50% inhibitory concentration (IC50) in assay [1] (setting [3]) was over 20 µM. Further, the inhibition at 20 µM in assay [2] (setting [5]) is under 10%.

With `C#CCOc1ccccc1/C=C/c1cc(=O)c2c(OC)cccc2o1` [Compound 3c, (E)-5-methoxy-2-[2-(prop-2-yn-1-yloxy)styryl]-4H-chromen-4-one], the half-inhibitory concentration (IC50) in assay [1] (setting [3]) is over 20 µM.

`C#CCOc1ccccc1/C=C/c1cc(=O)c2ccc(OC)c(OC)c2o1` [Compound 3d, (E)-7,8-dimethoxy-2-[2-(prop-2-yn-1-yloxy)styryl]-4H-chromen-4-one] gave a 50% inhibitory concentration (IC50) in assay [1] of 2.4 ± 0.1 µM. Besides, the inhibition at 20 µM in assay [2] (setting [5]) is under 10%.

`C#CCOc1cc(OC)ccc1/C=C/c1cc(=O)c2ccccc2o1` [Compound 3e, (E)-2-[4-methoxy-2-(prop-2-yn-1-yloxy)styryl]-4H-chromen-4-one]: in assay [1] (setting [3]), the IC50 was over 20 µM.

As to `C#CCOc1cc(OC)ccc1/C=C/c1cc(=O)c2ccc(OC)cc2o1` [Compound 3f, (E)-7-methoxy-2-[4-methoxy-2-(prop-2-yn-1-yloxy)styryl]-4H-chromen-4-one], in assay [1] (setting [3]), the half-maximal inhibitory concentration (IC50) was over 20 µM. In assay [2] (setting [5]), the inhibition at 20 µM was found to be 48%.

Take `C#CCOc1ccc(Br)cc1/C=C/c1cc(=O)c2ccccc2o1` [Compound 3i]: the 50% inhibitory concentration (IC50) in assay [1] (setting [3]) was over 20 µM.

In assay [1], `O=c1c2ccccc2oc2cc3c(cc12)COc1ccccc1-3` [Compound 4a, 6H,8H-Chromeno[3,4-b]xanthen-8-one] registered a half-inhibitory concentration (IC50) of 2.1 ± 0.2 µM. For the same compound, in assay [2] (setting [5]), the inhibition at 20 µM is under 10%.

Consider `COc1ccc2c(=O)c3cc4c(cc3oc2c1)-c1ccccc1OC4` [Compound 4b], for which the half-maximal inhibitory concentration (IC50) in assay [1] (setting [4]) is 3.9 ± 0.1 µM. The inhibition at 20 µM in assay [2] (setting [5]) is 70%; in assay [2] (Table 3 (dual-target summary)) it was 66 to 70%.

With `COc1cccc2oc3cc4c(cc3c(=O)c12)COc1ccccc1-4` [Compound 4c, 9-Methoxy-6H,8H-chromeno[3,4-b]xanthen-8-one], the IC50 in assay [1] (setting [3]) is over 20 µM.

`COc1ccc2c(=O)c3cc4c(cc3oc2c1OC)-c1ccccc1OC4` [Compound 4d, 11,12-Dimethoxy-6H,8H-chromeno[3,4-b]xanthen-8-one]: in assay [1] (setting [3]), the 50% inhibitory concentration (IC50) was over 20 µM.

`O=c1c2ccccc2oc2cc3c(cc12)COc1ccc(Br)cc1-3` [Compound 4i, 2-bromo-6H,8H-chromeno[3,4-b]xanthen-8-one]: in assay [1] (setting [3]), the IC50 was over 20 µM.

As for `N#CCOc1ccccc1/C=C/c1cc(=O)c2ccccc2o1` [Compound 6, (E)-2-{2-[2-(4-oxo-4H-chromen-2-yl)vinyl]phenoxy}acetonitrile], the IC50 in assay [1] (setting [3]) was over 20 µM.

Regarding `C#CCN(CC#C)c1ccccc1/C=C/c1cc(=O)c2ccccc2o1` [Compound 8, (E)-2-{2-[di(prop-2-yn-1-yl)amino]styryl}-4H-chromen-4-one], the IC50 in assay [1] (setting [4]) worked out at 8.7 ± 0.2 µM. For the same compound, the inhibition at 20 µM in assay [2] (setting [5]) and in assay [2] (Table 3 (dual-target summary)) was 18% each time.

As for `Cc1ccc(C#CCOc2ccccc2/C=C/c2cc(=O)c3ccccc3o2)cc1` [Compound 10, (E)-2-(2-{[3-(4-methylphenyl)prop-2-yn-1-yl]oxy}styryl)-4H-chromen-4-one], the half-inhibitory concentration (IC50) in assay [1] (setting [4]) turned out to be 2.9 ± 0.1 µM. Also, the inhibition at 20 µM in assay [2] (setting [5]) is 66%; in assay [2] (Table 3 (dual-target summary)), 66 to 70%.

On to `O=S1(=O)OC(c2ccc(O)cc2)(c2ccc(O)cc2)c2ccccc21` [Phenol Red, Phenol red, reference compound], for which the inhibition at 20 µM in assay [2] (setting [5]) turned out to be 20%.

“(E)-7,8-dimethoxy-2-[4-methoxy-2-(prop-2-yn-1-yloxy)styryl]chroman-4-one [Compound 3h]”: the IC50 in assay [1] (setting [3]) is over 20 µM.

Consider “(E)-8-methoxy-3-[4-methoxy-2-(prop-2-yn-1-yloxy]styryl)naphthalen-1(4H)-one [Compound 3g]”, for which the 50% inhibitory concentration (IC50) in assay [1] (setting [3]) is over 20 µM.

The IC50 is the point on the concentration scale where inhibition reaches its midpoint.

The record behind these values is article PMC8072597, “Chromeno[3,4-b]xanthones as First-in-Class AChE and Aβ Aggregation Dual-Inhibitors” (International Journal of Molecular Sciences, 2021).
